This is an account of results in patent US11951094B2, “TLR2 modulator compounds, pharmaceutical compositions and uses thereof” (Axial Therapeutics, Inc., priority 2020, dated 2024).

The structures appear in SMILES notation.

Holding throughout (format): cell-based
Test [1] deals with T1, TLR2 (Homo sapiens, UniProt O60603). Put plainly: TLR2 in vitro functional assay, cytokine release from human monocytic cell line THP-1. Particulars: THP-1 human monocytic cell line, average of all runs. As to the method:
(§1) Cells of the immune system respond to TLR agonists in part by secreting cytokines. Functional assays for TLR2 agonists measure cytokine release from purified immune cells or immortalized cell lines derived from immune cells. Cytokine release is measured by standard ELISA approaches or multiplexed analysis using the Meso Scale Discovery (MSD) platform.
Following assay measurements utilizing either HEK-Blue detection or cytokine release, all data is analyzed with the GraphPad Prism8 statistical package to determine EC50, binding and activity metrics for the TLR2 modulators. […]
(§2) Numerous cell lines derived from various cell types can respond to TLR2 agonists with stereotyped cytokine and chemokine secretion. In particular, cell lines derived from macrophages respond robustly to TLR2 agonists by secreting a wide array of cytokines, including (but not limited to) TNF-alpha, IL-1, IL-10 and IL-12. The human monocytic cell line THP-1, the mouse macrophage line RAW-264.7, and the rat macrophage line NR8383 were used. For each assay, the respective cell lines were plated into 96-well plates overnight and then treated the following day with various TLR2-engaging compounds at varying concentrations. The next day, supernatants were collected and assayed by multiplex immunodetection for cytokines released (MSD detection kits for respective species).
(§3) Data provided in Table 5 is generated using protocols described in Example 45 and 46.

Test [2] concerns the target T1, TLR2. The experiment in a line: TLR2 agonist screening assay, HEK-Blue TLR2 reporter cell line (NF-kB-driven SEAP, absorbance at 600 nm). The following applies: HEK-Blue TLR2 reporter cells, agonist mode. On the set-up: host or cells: HEK-293 (HEK-Blue TLR2 reporter cell line). Put shortly: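 Read-out: SEAP colour change, A600, after overnight agonist exposure. Cells: HEK-293 overexpressing TLR2, NF-kB-SEAP reporter, ~40,000/well, plated 16-24 h prior.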

Test [3] deals with T2, TLR2 (Mus musculus, UniProt Q9QUN7).
T2 construct: endogenous in cells; host or cells: RAW 264.7
Put plainly: TLR2 functional assay, cytokine release from RAW 264.7 mouse macrophage cell line. Particulars: average of all runs. As to the method:
as §1
Purified primary human peripheral blood mononuclear cells or RAW 264.7 mouse macrophage cell line cells are plated at approximately 40,000 cells per well. Cells are treated with agonist compounds and assays 6-24 hours post-treatment for cytokines released into the cell culture media.
Following assay measurements utilizing either HEK-Blue detection or cytokine release, all data is analyzed with the GraphPad Prism8 statistical package to determine EC50, binding and activity metrics for the TLR2 modulators.
as §2, §3

T2 sequence (Q9QUN7 25-784): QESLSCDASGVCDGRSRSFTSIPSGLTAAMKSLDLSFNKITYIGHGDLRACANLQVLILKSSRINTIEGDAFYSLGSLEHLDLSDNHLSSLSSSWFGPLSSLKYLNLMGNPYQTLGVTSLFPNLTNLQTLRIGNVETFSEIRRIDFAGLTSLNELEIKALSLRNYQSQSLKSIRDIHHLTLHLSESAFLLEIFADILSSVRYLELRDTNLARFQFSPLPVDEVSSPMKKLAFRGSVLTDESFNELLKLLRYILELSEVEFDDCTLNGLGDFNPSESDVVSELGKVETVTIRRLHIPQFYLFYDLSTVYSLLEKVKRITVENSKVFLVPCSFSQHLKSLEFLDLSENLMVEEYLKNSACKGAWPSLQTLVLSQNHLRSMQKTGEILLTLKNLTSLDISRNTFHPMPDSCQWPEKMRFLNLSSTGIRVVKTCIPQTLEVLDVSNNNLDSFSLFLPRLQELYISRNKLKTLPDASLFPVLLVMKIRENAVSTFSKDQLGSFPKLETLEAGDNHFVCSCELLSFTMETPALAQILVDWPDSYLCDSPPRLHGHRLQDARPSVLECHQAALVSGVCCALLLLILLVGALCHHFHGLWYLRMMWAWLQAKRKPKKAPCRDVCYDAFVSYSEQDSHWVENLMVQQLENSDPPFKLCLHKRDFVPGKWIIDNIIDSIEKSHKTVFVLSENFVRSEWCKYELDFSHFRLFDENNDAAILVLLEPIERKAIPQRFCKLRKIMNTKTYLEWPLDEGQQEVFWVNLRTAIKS
T1 sequence (O60603 21-784): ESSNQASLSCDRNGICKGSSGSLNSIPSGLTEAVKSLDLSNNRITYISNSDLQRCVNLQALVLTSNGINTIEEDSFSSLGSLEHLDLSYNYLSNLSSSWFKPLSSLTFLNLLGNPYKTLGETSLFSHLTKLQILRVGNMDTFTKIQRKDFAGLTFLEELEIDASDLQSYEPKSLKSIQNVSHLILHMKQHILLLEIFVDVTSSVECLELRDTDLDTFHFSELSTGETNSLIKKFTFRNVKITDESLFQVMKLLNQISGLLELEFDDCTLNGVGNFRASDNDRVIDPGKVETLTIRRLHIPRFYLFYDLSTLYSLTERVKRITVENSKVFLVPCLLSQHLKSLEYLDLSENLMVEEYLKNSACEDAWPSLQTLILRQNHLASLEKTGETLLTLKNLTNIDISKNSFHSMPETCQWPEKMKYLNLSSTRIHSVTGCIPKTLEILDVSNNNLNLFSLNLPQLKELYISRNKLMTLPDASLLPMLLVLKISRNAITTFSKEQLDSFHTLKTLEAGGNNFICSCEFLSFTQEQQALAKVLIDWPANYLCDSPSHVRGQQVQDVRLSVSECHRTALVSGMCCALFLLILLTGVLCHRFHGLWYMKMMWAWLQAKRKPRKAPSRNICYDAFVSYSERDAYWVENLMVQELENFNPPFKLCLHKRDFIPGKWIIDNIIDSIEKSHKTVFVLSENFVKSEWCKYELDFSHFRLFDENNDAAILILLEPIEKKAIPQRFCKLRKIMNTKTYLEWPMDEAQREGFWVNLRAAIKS

Turning to `CCCCCCCCCCCCCCNC(=O)[C@@H]1CN(C(=O)c2ccc(C(=O)N3C[C@@H](C(=O)N[C@H]4C[C@@H]4c4ccccc4)[C@H](C(=O)N[C@H]4C[C@@H]4c4ccccc4)C3)cc2)C[C@@H]1O` (single isomer, unassigned) [Compound 044, (3S,4S)-1-(4-((3R*,4R*)-3-hydroxy-4-(tetradecylcarbamoyl)pyrrolidine-1-carbonyl)benzoyl)-N3,N4-bis((1S,2R)-2-phenylcyclopropyl)pyrrolidine-3,4-dicarboxamide], the EC50 at TLR2 [1] and at TLR2 [2] (average of all runs (Table 3)) was 0.1 to 50 nM each time.

Regarding `CCCCCCCNC(=O)[C@@H]1CN(C(=O)c2ccc(C(=O)N3C[C@@H](C(=O)N[C@H]4C[C@@H]4c4ccccc4)[C@H](C(=O)N[C@H]4C[C@@H]4c4ccccc4)C3)cc2)C[C@@H]1OCCCCCCC` (relative stereo) [Compound 063, (3S,4S)-1-(4-((3R*,4R*)-3-(heptylcarbamoyl)-4-(heptyloxy)pyrrolidine-1-carbonyl)benzoyl)-N3,N4-bis((1S,2R)-2-phenylcyclopropyl)pyrrolidine-3,4-dicarboxamide], the values for the concentration for a half-maximal effect (EC50) on TLR2 [1] and at TLR2 [2] (average of all runs (Table 3)) were 0.1 to 50 nM and 351 to 1000 nM, respectively.

As for `CCCCCCCCCCCCCCNC(=O)[C@@H]1CN(C(=O)c2ccc(C(=O)N3C[C@@H](C(=O)N[C@H]4C[C@@H]4c4ccccc4)[C@H](C(=O)N[C@H]4C[C@@H]4c4ccccc4)C3)cc2)C[C@H]1OC` (relative stereo) [Compound 060, (3S,4S)-1-(4-((3S*,4R*)-3-methoxy-4-(tetradecylcarbamoyl)pyrrolidine-1-carbonyl)benzoyl)-N3,N4-bis((1S,2R)-2-phenylcyclopropyl)pyrrolidine-3,4-dicarboxamide], the concentration giving a half-maximal response (EC50) on TLR2 [1] and at TLR2 [2] (average of all runs (Table 3)) was 0.1 to 50 nM in each case.

For the compound `CCCCCCCC(=O)N1CCN(C(=O)c2ccc(C(=O)N3C[C@@H](C(=O)N[C@H]4C[C@@H]4c4ccccc4)[C@H](C(=O)N[C@H]4C[C@@H]4c4ccccc4)C3)cc2)CC1C(=O)NCCc1ccc(F)cc1` (stereo partly drawn) [Compound 036, (3S,4S)-1-(4-(3-((4-fluorophenethyl)carbamoyl)-4-octanoylpiperazine-1-carbonyl)benzoyl)-N3,N4-bis((1S,2R)-2-phenylcyclopropyl)pyrrolidine-3,4-dicarboxamide], the concentration for a half-maximal effect (EC50) at TLR2 [1] and on TLR2 [2] (average of all runs (Table 3)) was 0.1 to 50 nM throughout.

With `CCCCCCCCCCCCCCNC(=O)N[C@@H]1CCCN(C(=O)c2ccc(C(=O)N3C[C@@H](C(=O)N[C@H]4C[C@@H]4c4ccccc4)[C@H](C(=O)N[C@H]4C[C@@H]4c4ccccc4)C3)cc2)C1` [Compound 206, (3S,4S)—N3,N4-bis((1S,2R)-2-phenylcyclopropyl)-1-(4-((R)-3-(3-tetradecylureido)piperidine-1-carbonyl)benzoyl)pyrrolidine-3,4-dicarboxamide], the figures for the EC50 at TLR2 [3] and on TLR2 [2] (average of all runs (Table 4)) were > 1000 nM and 0.1 to 50 nM, respectively.

Take `CCCCCCCCNC(=O)N[C@@H](CNC(=O)c1ccc(C(=O)N2C[C@@H](C(=O)N[C@H]3C[C@@H]3c3ccccc3)[C@H](C(=O)N[C@H]3C[C@@H]3c3ccccc3)C2)cc1)C(=O)NCCCCCC` [Compound 211, (3S,4S)-1-(4-(((S)-3-(hexylamino)-2-(3-octylureido)-3-oxopropyl)carbamoyl)benzoyl)-N3,N4-bis((1S,2R)-2-phenylcyclopropyl)pyrrolidine-3,4-dicarboxamide]: the figures for the EC50 on TLR2 [3] and on TLR2 [2] (average of all runs (Table 4)) were > 1000 nM and 0.1 to 50 nM, respectively.

In the case of `CCCCCCCCCCCCNC(=O)N[C@H]1CN(C(=O)c2ccc(C(=O)N3C[C@@H](C(=O)N[C@H]4C[C@@H]4c4ccccc4)[C@H](C(=O)N[C@H]4C[C@@H]4c4ccccc4)C3)cc2)C[C@@H]1OC` [Compound 188, (3S,4S)-1-(4-((3S,4S)-3-(3-dodecylureido)-4-methoxypyrrolidine-1-carbonyl)benzoyl)-N3,N4-bis((1S,2R)-2-phenylcyclopropyl)pyrrolidine-3,4-dicarboxamide], the EC50 at TLR2 [3] was 351 to 1000 nM; at TLR2 [2] (average of all runs (Table 4)), 0.1 to 50 nM.

Consider `CCCCCCNC(=O)[C@H](CNC(=O)c1ccc(C(=O)N2C[C@@H](C(=O)N[C@H]3C[C@@H]3c3ccccc3)[C@H](C(=O)N[C@H]3C[C@@H]3c3ccccc3)C2)cc1)NC(=O)Cc1ccc(F)cc1` [Compound 138, (3S,4S)-1-(4-(((S)-2-(2-(4-fluorophenyl)acetamido)-3-(hexylamino)-3-oxopropyl)carbamoyl)benzoyl)-N3,N4-bis((1S,2R)-2-phenylcyclopropyl) pyrrolidine-3,4-dicarboxamide], for which the EC50 at TLR2 [3] was > 1000 nM; on TLR2 [2] (average of all runs (Table 4)), 0.1 to 50 nM.

On to `CCCCCCCCCCCNC(=O)N[C@H]1CN(C(c2ccc(C(=O)N3C[C@@H](C(=O)N[C@H]4C[C@@H]4c4ccccc4)[C@H](C(=O)N[C@H]4C[C@@H]4c4ccccc4)C3)cc2)C(F)(F)F)C[C@@H]1OC` (single isomer, unassigned) [Compound 231, (3S,4S)—N3,N4-bis((1S,2R)-2-phenylcyclopropyl)-1-(4-((S*)-2,2,2-trifluoro-1-((3S,4S)-3-methoxy-4-(3-undecylureido)pyrrolidin-1-yl)ethyl)benzoyl)pyrrolidine-3,4-dicarboxamide], for which the EC50 at TLR2 [3] was 51 to 350 nM; at TLR2 [2] (average of all runs (Table 4)), 0.1 to 50 nM.

With `CCCCCCCCCCCCCOC(=O)N[C@H]1CN(C(=O)c2ccc(C(=O)N3C[C@@H](C(=O)N[C@H]4C[C@@H]4c4ccccc4)[C@H](C(=O)N[C@H]4C[C@@H]4c4ccccc4)C3)cc2)C[C@@H]1OC` [Compound 217, tridecyl ((3S,4S)-1-(4-((3S,4S)-3,4-bis(((1S,2R)-2-phenylcyclopropyl)carbamoyl)pyrrolidine-1-carbonyl)benzoyl)-4-methoxypyrrolidin-3-yl)carbamate], the EC50 on TLR2 [3] was > 1000 nM; on TLR2 [2] (average of all runs (Table 4)), 0.1 to 50 nM.

Take `CCCCCCCCCCCCCCC(=O)N[C@@H]1CCCN(C(=O)c2ccc(C(=O)N3C[C@@H](C(=O)N[C@H]4C[C@@H]4c4ccccc4)[C@H](C(=O)N[C@H]4C[C@@H]4c4ccccc4)C3)cc2)C1` [Compound 152, (3S,4S)-1-(4-((R)-3-pentadecanamidopiperidine-1-carbonyl)benzoyl)-N3,N4-bis((1S,2R)-2-phenylcyclopropyl)pyrrolidine-3,4-dicarboxamide]: the concentration for a half-maximal effect (EC50) at TLR2 [3] is > 1000 nM; at TLR2 [2] (average of all runs (Table 4)) it was 0.1 to 50 nM.

For `CCCCCCCCC(=O)N[C@@H](CNC(=O)c1ccc(C(=O)N2C[C@@H](C(=O)N[C@H]3C[C@@H]3c3ccccc3)[C@H](C(=O)N[C@H]3C[C@@H]3c3ccccc3)C2)cc1)C(=O)NCCCCCC` [Compound 140, (3S,4S)-1-(4-(((S)-3-(hexylamino)-2-nonanamido-3-oxopropyl)carbamoyl)benzoyl)-N3,N4-bis((1S,2R)-2-phenylcyclopropyl)pyrrolidine-3,4-dicarboxamide], the EC50 at TLR2 [3] lay in the range of 51 to 350 nM; at TLR2 [2] (average of all runs (Table 4)), 0.1 to 50 nM.

For the compound `CCCCCCCCCCCCNC(=O)N[C@@H]1CCCN(C(=O)c2ccc(C(=O)N3C[C@@H](C(=O)N[C@H]4C[C@@H]4c4ccccc4)[C@H](C(=O)N[C@H]4C[C@@H]4c4ccccc4)C3)cc2)C1` [Compound 204, (3S,4S)-1-(4-((R)-3-(3-dodecylureido)piperidine-1-carbonyl)benzoyl)-N3,N4-bis((1S,2R)-2-phenylcyclopropyl)pyrrolidine-3,4-dicarboxamide], the EC50 on TLR2 [3] is > 1000 nM; on TLR2 [2] (average of all runs (Table 4)), 0.1 to 50 nM.

On to `CCCCCCCCCC(=O)N[C@@H](Cn1cc(-c2ccc(C(=O)N3C[C@@H](C(=O)N[C@H]4C[C@@H]4c4ccccc4)[C@H](C(=O)N[C@H]4C[C@@H]4c4ccccc4)C3)cc2)nn1)C(=O)NCCCCCC` [Compound 213, (3S,4S)-1-(4-(1-((S)-2-decanamido-3-(hexylamino)-3-oxopropyl)-1H-1,2,3-triazol-4-yl)benzoyl)-N3,N4-bis((1S,2R)-2-phenylcyclopropyl)pyrrolidine-3,4-dicarboxamide], for which the EC50 was in the range of 51 to 350 nM on TLR2 [3] and 0.1 to 50 nM at TLR2 [2] (average of all runs (Table 4)).

On to `CCCCCCCCC(=O)N[C@@H](Cn1cc(-c2ccc(C(=O)N3C[C@@H](C(=O)N[C@H]4C[C@@H]4c4ccccc4)[C@H](C(=O)N[C@H]4C[C@@H]4c4ccccc4)C3)cc2)nn1)C(=O)NCCCCCC` [Compound 212, (3S,4S)-1-(4-(1-((S)-3-(hexylamino)-2-nonanamido-3-oxopropyl)-1H-1,2,3-triazol-4-yl)benzoyl)-N3,N4-bis ((1S,2R)-2-phenylcyclopropyl) pyrrolidine-3,4-dicarboxamide], for which the EC50 at TLR2 [3] is 351 to 1000 nM; on TLR2 [2] (average of all runs (Table 4)) it was 0.1 to 50 nM.
